Laboratory results reported in patent US20040106545A1, “Compounds and methods for modulating cell adhesion” (priority 1996, published 2004).
“Also recorded” adds a separate entry of the source.

Tests used:
[1] = system: Rat; test: Acute toxicity study in rat; type: in vivo; details: intravenously, 100 mg/kg
[2] = system: control 3T3 cells; test: Neurite outgrowth of rat cerebellar neurons on control 3T3 monolayers (Example 15); type: cell-based; details: increasing concentrations (FIG. 23)
Procedure: Cell culture and neurite outgrowth assays. Co-cultures of cerebellar neurons on monolayers of control 3T3 cells and monolayers of transfected 3T3 cells that express physiological levels of chick N-cadherin or human L1 were established as previously described (Williams et al., Neuron 13:583-594, 1994). In brief, 80,000 3T3 cells (control and transfected) were plated into individual chambers of an eight-chamber tissue culture slide coated with polylysine and fibronectin and cultured in DMEM/10% FCS. After 24 hours, when confluent monolayers had formed, the medium was removed and 3000 cerebellar neurons isolated from post-natal day 2-3 rats were plated into each well in SATO media (Doherty et al., Nature 343:464-466, 1990) supplemented with 2% FCS. All of the test peptides were added immediately before the neurons as a 2× stock prepared in SATO/2% FCS. The co-cultures were maintained for 16-18 hours, at which time they were fixed and immunostained for GAP-43 which is present only in the neurons and delineates the neuritic processes. The mean length of the longest neurite per cell was measured for 150-200 neurons sampled in replicate cultures as previously described (Williams et al., Neuron 13:583-594, 1994). […] Dose-response curves were evaluated and the EC50 values determined.

[3] = system: Human saphenous vein vascular smooth muscle cells; test: Vascular smooth muscle cell migration after scrape-wounding; type: cell-based; details: 1 mg/mL, 24 hours after wounding
Procedure: An illustrative assay for evaluating the modulating of vascular smooth muscle cell migration may be performed as follows (as described in Example 23). Human saphenous vein vascular smooth muscle cells are explanted from surplus segments of vein from patients undergoing coronary artery bypass surgery. Cells are maintained in Dulbecco's modified essential medium supplemented with penicillin, streptomycin, L-glutamine and 10% fetal calf serum and are grown to confluence on glass coverslips in the presence or absence of collagen type I. The cell layer is then subjected to scrape-wounding by drawing a fine cell scraper across the coverslip. Proliferation of the vascular smooth muscle cells is inhibited by addition of 2 mM hydroxyurea to the culture media. […] The migratory capacity of the vascular smooth muscle cells is assessed by measuring the distance of migration into the wound area (outermost 100 μm from the wound) using image analysis software at 24 hours after wounding.
Human saphenous vein vascular smooth muscle cells were explanted from surplus segments of vein from patients undergoing coronary artery bypass surgery. […] The migratory capacity of the vascular smooth muscle cells was assessed by measuring the distance of migration into the wound area (outermost 100 μm from the wound) using image analysis software at 24 hours after wounding.

[4] = system: MKL-F cells, breast cancer tumors; test: Breast cancer tumors grown in nude mice; type: in vivo, mouse
Procedure: Breast cancer tumors were also grown in nude mice, as described above. After implanting tumor cells into the mammary fat pad, mice were injected once daily for four days with either the representative modulating agent N—Ac-CHAVC-NH2 (SEQ ID NO:10) or saline as a control. Mice were sacrificed 24 hours after the last injection, and tumors were photographed. […] These tumors are well vascularized.
MKL-F cells were injected into mammary fat pad, as described above, and the tumors were grown for 21 days before injection. Mice were then injected once daily for four days with either 20 mg/kg of the representative modulating agent N—Ac-CHAVC-NH2 (SEQ ID NO:10) or saline as a control. Mice were sacrificed 21 days after the last injection. Tumor volume was measured at day 18 following injection of cells, day 22 (following the first injection of modulating agent), and days 29, 32, 36, 39 and 42.

[5] = biological target: T1, N-CAM (Homo sapiens, UniProt P13591); test: Neurite outgrowth on N-CAM expressing 3T3 monolayers (Example 2); type: cell-based, mouse; details: 500 μg/mL
T1 construct: expressed in transfected cells; host or cells: 3T3 fibroblasts (monolayer); mouse post-natal day 3 cerebellar neurons on top

[6] = system: mice; test: Acute toxicity study in mice; type: in vivo, mouse
Procedure: Mice were injected intraperitoneally for seven consecutive days with 20 mg/kg of N—Ac-CHAVC-NH2 (SEQ ID NO:10) and sacrificed 24 hr after treatment.
Mice were injected intraperitoneally with 125 mg/kg of N—Ac-CHAVC-NH2 (SEQ ID NO:10) for three consecutive days and sacrificed on the fourth day.
Mice were injected intravenously with either a saline control or 200 mg/kg of N—Ac-CHAVC-NH2 (SEQ ID NO:10). Mice were sacrificed after 24 hours, or allowed a 14-day recovery period.

T1 sequence (P13591 20-858, species assumed): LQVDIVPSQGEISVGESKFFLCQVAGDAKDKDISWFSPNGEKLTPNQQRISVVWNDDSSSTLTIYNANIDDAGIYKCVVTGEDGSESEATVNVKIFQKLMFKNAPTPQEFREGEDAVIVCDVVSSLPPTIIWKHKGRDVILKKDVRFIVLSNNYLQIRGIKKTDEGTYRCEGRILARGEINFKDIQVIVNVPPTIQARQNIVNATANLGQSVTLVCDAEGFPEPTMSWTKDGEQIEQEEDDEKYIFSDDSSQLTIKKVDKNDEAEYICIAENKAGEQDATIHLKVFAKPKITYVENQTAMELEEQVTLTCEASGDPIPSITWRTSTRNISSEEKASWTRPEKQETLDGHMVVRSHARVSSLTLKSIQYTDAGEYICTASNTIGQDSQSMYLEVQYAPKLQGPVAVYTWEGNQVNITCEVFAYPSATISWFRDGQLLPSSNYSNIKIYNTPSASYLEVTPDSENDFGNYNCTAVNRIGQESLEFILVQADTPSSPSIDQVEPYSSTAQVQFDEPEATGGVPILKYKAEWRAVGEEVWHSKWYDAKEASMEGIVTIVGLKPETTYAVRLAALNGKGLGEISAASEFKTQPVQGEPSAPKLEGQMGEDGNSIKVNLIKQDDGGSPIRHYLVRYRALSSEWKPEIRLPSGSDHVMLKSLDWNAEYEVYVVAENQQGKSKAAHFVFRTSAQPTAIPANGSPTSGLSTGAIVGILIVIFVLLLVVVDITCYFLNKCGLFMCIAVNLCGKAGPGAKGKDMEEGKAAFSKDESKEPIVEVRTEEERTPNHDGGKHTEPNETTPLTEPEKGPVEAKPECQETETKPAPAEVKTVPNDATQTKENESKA

CC(=O)N[C@H]1CSSC[C@@H](C(N)=O)NC(=O)[C@H](C(C)C)NC(=O)[C@H](C)NC(=O)[C@H](Cc2c[nH]cn2)NC1=O [N—Ac—CHAVC—NH2, N-Ac-Cys-His-Ala-Val-Cys-NH2] was tested, and the “gross or histopathological findings” value [1] was “no gross or histopathological findings related to the treatment”, the “effect on neurite extension over control 3T3 cells” value [2] was “had no effect on the basal growth over 3T3 cells; also recorded: no significant effect on neurite extension over control 3T3 cells” and the “reduction of vascular smooth muscle cell migration” value ([3]; collagen) was 56±5%. The “reduction of vascular smooth muscle cell migration” value ([3]; glass) was 53±8%, the breast tumor growth ([4]; once daily for four days) was “slow tumor growth” and the “appearance of breast tumors (blood vessels)” value ([4]; once daily for four days (20 mg/kg), 24 hours after last injection) was “extensive rupturing of blood vessels”. The “inhibition of neurite outgrowth on 3T3 cells expressing N-CAM” value [5] was “did not inhibit neurite outgrowth”, the “gross or histopathological findings” value ([6]; intraperitoneally, 125 mg/kg, three consecutive days, sacrificed on the fourth day) was “No gross or histopathological findings related to the treatment were found” and the “gross or histopathological findings” value ([6]; intraperitoneally, seven consecutive days, 20 mg/kg, sacrificed 24 hr after treatment) was “No gross or histopathological findings related to the treatment were found”. The mortality ([6]; intravenously, 200 mg/kg) was “no animals died during the study” and the “gross or histopathological findings” value ([6]; intravenously, 200 mg/kg, sacrificed after 24 hours or 14-day recovery) was “no gross or histopathological findings related to the treatment were found”.
